Reference: article PMC6099557, “Cholinesterase Inhibition Activity, Alkaloid Profiling and Molecular Docking of Chilean Rhodophiala (Amaryllidaceae)” (Molecules : A Journal of Synthetic Chemistry and Natural …, 2018)
Values after ≈ are worked out from the molar mass of the structure shown. Like-named read-outs stand apart in the source and are kept apart here.

Tests used:
[1] = biological target: T1, BuChE from equine serum (Equus caballus, UniProt P81908); assay: biochemical
T1 construct: BuChE from equine serum (Merck, Darmstadt, Germany); purchased Merck, Darmstadt, Germany; host or cells: equine serum
Experimental: (§1) Cholinesterase inhibitory activities were determined according to [35] with some modifications. Stock solutions with 518U of AchE from Electrophorus electricus (Merck, Darmstadt, Germany) and BuChE from equine serum (Merck, Darmstadt, Germany), respectively, were prepared and kept at −20 °C. Acetylthiocholine iodide (ATCI), S-butyrylthiocholine iodide (BTCI) and 5,5′-dithiobis (2-nitrobenzoic acid) (DTNB) were obtained from Merck (Darmstadt, Germany). Fifty microliters of AChE or BuChE (both enzymes used at 6.24 U) in phosphate buffer (8 mM K2HPO4, 2.3 mM NaH2PO4, 0.15 NaCl, pH 7.5) and 50 μL of the sample dissolved in the same buffer were added to the wells. The plates were incubated for 30 min at room temperature. Then, 100 μL of the substrate solution (0.1 M Na2HPO4, […], and 0.6 mM ATCI or 0.24 mM BTCI in Millipore water, pH 7.5) was added. After 10 min, the absorbance was read at 405 nm in a Labsystem microplate reader (Thermo Fischer, Waltham, MA, USA). Enzyme activity was calculated as percent compared to a control using buffer without any inhibitor. […] In a first step, samples were assessed at 10, 100 and 200 μg/mL towards both enzymes. […] The cholinesterase inhibitory data were analyzed with the software Microsoft Office Excel 2010 (Microsoft, Redmond, WA, USA).

[2] = system: human serum BuChE; settings: tested 0.5–500 μg/mL, cited from earlier work
[3] = system: human erythrocye AChE; settings: human erythrocyte AChE, tested 0.5–500 μg/mL, cited from earlier work
[4] = biological target: T2, AchE from Electrophorus electricus (Electrophorus electricus, UniProt O42275); assay: biochemical; settings: AChE inhibitory activity IC50, single alkaloids and reference galanthamine; electric eel AChE
T2 construct: purchased Merck, Darmstadt, Germany
Experimental: as §1

[5] = system: panel of eight human cancer cell lines; settings: cited from earlier work
[6] = system: S. aureus ATCC 6538; settings: cited from earlier work
[7] = system: E. coli ATCC 24922; settings: cited from earlier work
[8] = system: multi-drug resistant breast cell line NCLADR; settings: montanine at 2.5 μg/mL; cited from earlier work
[9] = system: P. aeruginosa ATCC 27853; settings: cited from earlier work
[10] = BuChE inhibitory activity IC50, single alkaloids and reference galanthamine
[11] = single alkaloids and reference galanthamine, read-out: BuChE inhibitory activity IC50 (converted)

T1 sequence (P81908 whole entry): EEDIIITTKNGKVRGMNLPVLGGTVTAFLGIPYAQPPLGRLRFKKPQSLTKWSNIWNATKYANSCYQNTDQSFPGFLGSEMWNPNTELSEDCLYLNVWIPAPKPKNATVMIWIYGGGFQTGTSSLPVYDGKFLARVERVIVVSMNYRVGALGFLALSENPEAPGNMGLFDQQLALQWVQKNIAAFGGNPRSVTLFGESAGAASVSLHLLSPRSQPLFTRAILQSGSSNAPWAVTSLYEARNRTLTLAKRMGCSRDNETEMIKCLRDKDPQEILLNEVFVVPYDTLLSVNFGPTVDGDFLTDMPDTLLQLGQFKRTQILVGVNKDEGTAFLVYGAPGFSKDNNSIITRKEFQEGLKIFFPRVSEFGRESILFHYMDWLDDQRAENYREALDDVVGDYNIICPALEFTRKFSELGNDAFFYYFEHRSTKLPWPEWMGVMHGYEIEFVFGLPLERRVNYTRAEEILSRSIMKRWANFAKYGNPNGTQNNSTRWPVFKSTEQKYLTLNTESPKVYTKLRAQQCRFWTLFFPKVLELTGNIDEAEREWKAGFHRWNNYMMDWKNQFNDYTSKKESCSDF
T2 sequence (O42275 24-633): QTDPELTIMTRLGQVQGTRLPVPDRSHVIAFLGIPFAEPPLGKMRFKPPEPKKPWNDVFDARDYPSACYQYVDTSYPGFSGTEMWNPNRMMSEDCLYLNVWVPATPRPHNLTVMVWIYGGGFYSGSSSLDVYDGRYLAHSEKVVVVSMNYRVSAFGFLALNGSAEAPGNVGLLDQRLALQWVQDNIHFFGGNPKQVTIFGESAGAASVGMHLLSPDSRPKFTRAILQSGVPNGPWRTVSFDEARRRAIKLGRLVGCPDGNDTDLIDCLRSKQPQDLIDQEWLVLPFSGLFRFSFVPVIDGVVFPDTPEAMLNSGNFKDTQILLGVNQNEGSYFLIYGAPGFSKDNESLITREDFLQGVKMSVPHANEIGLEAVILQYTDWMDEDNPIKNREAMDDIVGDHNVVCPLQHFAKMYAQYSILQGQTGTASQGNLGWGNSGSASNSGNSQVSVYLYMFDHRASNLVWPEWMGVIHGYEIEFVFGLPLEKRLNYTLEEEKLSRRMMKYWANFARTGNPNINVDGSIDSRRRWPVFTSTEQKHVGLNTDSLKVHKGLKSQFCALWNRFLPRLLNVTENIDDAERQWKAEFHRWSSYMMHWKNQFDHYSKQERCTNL

COC1C=CC23c4cc5c(cc4CN(CC2O)C3C1)OCO5 (centres unmarked) [haemanthamine (18a), haemanthamine]
IC50 [1, 10]: > 664 µM
Activity on human BuChE (in words) [2]: not active
Activity on human AChE (in words) [3]: not active

OC1C=CC23c4cc5c(cc4CN(CC2O)C3C1)OCO5 (centres unmarked) [11-hydroxyvittatine (20a), 11-hydroxyvittatine]
IC50 [1, 11]: > 696 µM
Activity on human BuChE (in words) ([2]; listed as 11-hydroxyvitattine): not active
Activity on human AChE (in words) ([3]; listed as 11-hydroxyvitattine): not active

COc1cc2c(cc1O)CN1CC[C@@]23C=C[C@@H](O)C[C@H]13 [8-O-demethylmaritidine (16), 8-O-demethylmaritidine]
IC50 [1, 10]: 468 µM
IC50 [4]: 414 µM
Activity on human BuChE (in words) [2]: inactive
Activity on human AChE (in words) [3]: presented activity

CO[C@H]1C=C2[C@H]3C[N@@](Cc4cc5c(cc43)OCO5)[C@H]2C[C@@H]1O [montanine]
Activity towards a panel of eight human cancer cell lines [5]: showed activity
MIC [6]: 5 µg/mL (≈ 16.6 µM)
MIC [7]: 5 µg/mL (≈ 16.6 µM)
Activity on NCLADR compared with doxorubicine [8]: more active than doxorubicine
MIC [9]: 20 µg/mL (≈ 66.4 µM)

COc1cc2c(cc1O)C13CCC(O)CC1N(CC3)C2 (centres unmarked) [deacetylcantabricine (17), deacetylcantabricine]
IC50 [1, 10]: > 726 µM
IC50 [4]: > 726 µM

O[C@H]1[C@H]2c3cc4c(cc3CN3CCC(=C[C@@H]1O)[C@H]23)OCO4 [lycorine (9), lycorine]
IC50 [1, 10]: > 696 µM
Activity on human BuChE (in words) [2]: not active
Activity on human AChE (in words) [3]: not active

OC1C=CC23c4cc5c(cc4CN(CC2O)C3C1)OCO5 (centres unmarked) [hamayne (20b), hamayne]
IC50 [1, 11]: 168 µM
Activity on human BuChE (in words) [2]: inactive
Activity on human AChE (in words) [3]: presented activity
